Experiment [1] addresses T1, PEX14 NTD (Homo sapiens, UniProt O75381).
T1 construct: PEX14 NTD (1-104), expressed in E. coli with His6-SUMO tag, cleaved
Details: method as in values quoted from other papers. Conditions: cited from earlier work.

Experiment [2] has as its target T1, PEX14 NTD. Conditions: SD, n = 3; read-out: KD (µM) (Suppl. Table 2); KD (nM) (Suppl. Table 4).
Description: Isothermal titration calorimetry (ITC) measurements were performed as triplicates at 25 °C using a MicroCal PEAQ-ITC (Malvern Instruments Ltd. U.K) calorimeter. Buffer conditions were 20 mM Tris pH 7.5, 50 mM NaCl. For all titrations a titrant dilution control experiment was performed and subtracted before the data were fitted to a one-site binding model using the Malvern Analysis software.
PEX13 SH3 at a concentration of 35-48 µM was titrated with purchased 15mer peptides containing (di)aromatic penta peptides from PEX5 or PEX5 1-76 (W0) at concentration of 0.7-0.6 mM and PEX13 350-403 (FxxxF) at a concentration of 0.9-1 mM. […] The concentration of PEX14 was corrected with the fit, since it cannot be accurate measured at 280 nm owing to the extinction coefficient of only 1490.

Read-outs that look alike come from different tables or passages of the source.

T1 sequence (O75381 1-104): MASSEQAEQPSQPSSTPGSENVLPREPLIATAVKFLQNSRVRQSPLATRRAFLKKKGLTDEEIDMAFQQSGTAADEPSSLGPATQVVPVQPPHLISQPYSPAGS

As to “PEX19 FxxxF motif (66-77 SQEKFFQELFDS in Fig. 3b; exact ligand of cited work not printed)”, the Kd (in general, the constant that tells how readily two partners part at equilibrium) at PEX14 NTD [1] was 9.2 µM. As to PEX13 residues 261-403 [PEX13 SH3-CTR], on PEX14 NTD [2], the equilibrium dissociation constant (Kd) amounted to 5.4 µM. On to PEX5 1-76 (contains […]) [PEX5 W0], for which the Kd on PEX14 NTD [2] stood at 0.0551 µM.

The record behind these values is PMC11024197 (Nature Communications, 2024).
